The values that follow come from patent US12692249B2, “WDR5 inhibitors and modulators” (Vanderbilt University, priority 2019, dated 2026).

Structures are written as SMILES.

One experiment relates to MV4:11 human cancer cell lines. Description: Cellular viability / anti-proliferative assay, CellTiter-Glo, 5 day protocol. The class given is cell-based. The settings on record: Homo sapiens, MV4-11, 120 h, MV4:11 cells; 5 day incubation; CellTiter-Glo; mean of at least two replicates; read-out: GI50 on cellular proliferation of MV4:11 human cancer cell lines. As for the experimental part: Cellular Viability of Human Tumor Cell Lines
Anti-proliferative activity using MLL-harboring cell lines. MV-4-11 and K562 cells are grown in IMDM media supplemented with 10% FBS and 1% penicillin/streptomycin, Molm-13 cells are cultured in RPMI-1640 media supplemented with 10% FBS and 1% penicillin/streptomycin. Viability assays are performed by dispensing 200 cells at 7200 cells/mL into each well of an opaque 384-well plate and adding compounds at the indicated concentrations in a final volume, of 32 μL. and a final concentration of DMSO of 0.3% for all samples. A certain range of compound concentrations is made through a series of 2-fold dilutions starting 30 μM at the highest, total 22 dilutions. After a set incubation period, 5 day protocol, the viability of cells in each well is assessed using the CellTiter-Glo assay (Promega), read on a 96 Microplane Luminometer (Cytation 3, BioTek). Serial dilutions of each cell type are performed in all assays to generate standard curves and the final densities of cells are determined within the dynamic range of the instrument. GI50 values are calculated based on XLfit software (IDBS, Guildford, UK) with Sigmoidal Dose-Response Model. Each compound is tested in minimum of two replicates. Data are expressed as mean.
A general note: In ATP-based viability assays light output follows the ATP content of the culture.
In the case of `CCc1cc(C2CCN(C)CC2)c2nc(C)cc(N3CCc4c(cc(Cn5ccnc5)cc4-c4cn(C)nc4C(F)(F)F)C3=O)c2c1` [Example 148, 7-((1H-Imidazol-1-yl)methyl)-2-(6-ethyl-2-methyl-8-(1-methylpiperidin-4-yl)quinolin-4-yl)-5-(1-methyl-3-(trifluoromethyl)-1H-pyrazol-4-yl)-3,4-dihydroisoquinolin-1(2H)-one], the GI50 is below 0.02 µM.

Regarding `COc1cc(C2=CCN(C)CC2)c2nc(C)cc(N3CCc4c(cc(Cn5ccnc5)cc4-c4cn(C)nc4C(F)(F)F)C3=O)c2c1` [Example 154, 7-((1H-Imidazol-1-yl)methyl)-2(6-methoxy-2-methyl-8-(1-methyl-1,2,3,6-tetrahydropyridin-4-yl)quinolin-4-yl)-5-(1-methyl-3-(trifluoromethyl)-1H-pyrazol-4-yl)-3,4-dihydroisoquinolin-1(2H)-one], the GI50 came to 0.033 µM.

`CCc1cc(C(=O)Nc2nccn2C)c2nccc(N3CCc4c(cc(Cn5ccnc5)cc4-c4cn(C)nc4C(F)(F)F)C3=O)c2c1` [Example 161, 4-(7-((1H-Imidazol-1-yl)methyl)-5-(1-methyl-3-(trifluoromethyl)-1H-pyrazol-4-yl)-1-oxo-3,4-dihydroisoquinolin-2(1H)-yl)-6-ethyl-N-(1-methyl-1H-imidazol-2-yl)quinoline-8-carboxamide]: the GI50 was determined as 0.059 µM.

As for `CCOC(=O)c1cc(CC)cc2c(N3CCc4c(cc(Cn5ccnc5)cc4-c4cn(C)nc4C(F)(F)F)C3=O)cc(C)nc12` [Example 162, ethyl 4-(7-((1H-imidazol-1-yl)methyl)-5-(1-methyl-3-(trifluoromethyl)-1H-pyrazol-4-yl)-1-oxo-3,4-dihydroisoquinolin-2(1H)-yl)-6-ethyl-2-methylquinoline-8-carboxylate], the GI50 is 0.088 µM.

For `CCc1cc(C(=O)NCc2ccncc2)c2nccc(N3CCc4c(cc(Cn5ccnc5)cc4-c4cn(C)nc4C(F)(F)F)C3=O)c2c1` [Example 163, 4-(7-((1H-Imidazol-1-yl)methyl)-5-(1-methyl-3-(trifluoromethyl)-1H-pyrazol-4-yl)-1-oxo-3,4-dihydroisoquinolin-2(1H)-yl)-6-ethyl-N-(pyridin-4-ylmethyl)quinoline-8-carboxamide], the GI50 worked out at 0.056 µM.

Turning to `CCc1cc(C(=O)NC2CCCC2)c2nccc(N3CCc4c(cc(Cn5ccnc5)cc4-c4cn(C)nc4C(F)(F)F)C3=O)c2c1` [Example 164, 4-(7-((1H-Imidazol-1-yl)methyl)-5-(1-methyl-3-(trifluoromethyl)-1H-pyrazol-4-yl)-1-oxo-3,4-dihydroisoquinolin-2(1)-yl)-N-cyclopentyl-6-ethylquinoline-8-carboxamide], the GI50 amounted to 0.155 µM.

Regarding `CCc1cc(C(=O)NCCO)c2nccc(N3CCc4c(cc(Cn5ccnc5)cc4-c4cn(C)nc4C(F)(F)F)C3=O)c2c1` [Example 168, 4-(7-((1H-Imidazol-1-yl)methyl)-5-(1-methyl-3-(trifluoromethyl)-1H-pyrazol-4-yl)-1-oxo-3,4-dihydroisoquinolin-2(1H)-yl)-6-ethyl-N-(2-hydroxyethyl)quinoline-8-carboxamide], the GI50 is 0.046 µM.

Consider `CCc1cc(C(=O)NCC2CCCC2)c2nccc(N3CCc4c(cc(Cn5ccnc5)cc4-c4cn(C)nc4C(F)(F)F)C3=O)c2c1` [Example 170, 4-(7-((1H-Imidazol-1-yl)methyl)-5-(1-methyl-3-(trifluoromethyl)-1H-pyrazol-4-yl)-1-oxo-3,4-dihydroisoquinolin-2(1H)-yl)-N-(cyclopentylmethyl)-6-ethylquinoline-8-carboxamide], for which the GI50 was 0.212 µM.

The experiment is the same for the next values; noted with them: Homo sapiens, MV4-11, 120 h, read-out: GI50 on cellular proliferation of MV4:11 human cancer cell lines.
`CCc1cc(C(=O)NCCN(C)C)c2nccc(N3CCc4c(cc(Cn5ccnc5)cc4-c4cn(C)nc4C(F)(F)F)C3=O)c2c1` [Example 166, 4-(7-((1H-Imidazol-1-yl)methyl)-5-(1-methyl-3-(trifluoromethyl)-1H-pyrazol-4-yl)-1-oxo-3,4-dihydroisoquinolin-2(1H)-yl)-N-(2-(dimethylamino)ethyl)-6-ethylquinoline-8-carboxamide]: the GI50 was below 0.02 µM.
